Patent publication US10597391B2, “Urea-containing isoxazole derivatives as FXR agonists and methods of use thereof” (Enanta Pharmaceuticals, Inc., priority 2016, dated 2020)
Several values for one entry are separate records, joined by “and”; a condition that tells them apart may be missing. Identical values can stand only once. Like-named read-outs stand apart in the source and are kept apart here.

Biological target: T1, human FXR (NR1H4) (Homo sapiens, UniProt Q96RI1)
T1 sequence (Q96RI1 1-486): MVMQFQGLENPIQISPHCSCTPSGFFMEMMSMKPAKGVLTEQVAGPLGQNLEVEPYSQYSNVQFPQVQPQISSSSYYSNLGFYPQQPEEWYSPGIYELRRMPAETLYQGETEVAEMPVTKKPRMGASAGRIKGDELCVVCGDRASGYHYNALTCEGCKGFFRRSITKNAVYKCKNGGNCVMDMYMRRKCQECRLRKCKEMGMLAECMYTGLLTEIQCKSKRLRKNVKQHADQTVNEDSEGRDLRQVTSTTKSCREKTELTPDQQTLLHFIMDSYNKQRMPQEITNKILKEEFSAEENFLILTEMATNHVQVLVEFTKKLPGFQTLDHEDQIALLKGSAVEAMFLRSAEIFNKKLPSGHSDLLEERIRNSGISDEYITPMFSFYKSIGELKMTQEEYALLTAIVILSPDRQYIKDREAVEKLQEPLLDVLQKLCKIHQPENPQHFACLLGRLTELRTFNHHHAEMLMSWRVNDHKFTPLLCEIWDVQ
Test: Human FXR (NR1H4) Assay: Gal4 promoter driven luciferase reporter transactivation in CHO cells (Indigo Bioscience kit IB00601)
Assay type: cell-based
Conditions: for Emax: CHO, read-out: Efficacy (%); for EC50: Human FXR (NR1H4) reporter assay in CHO cells
Procedure, shortened: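 CHO reporter cells expressing human NR1H4 with luciferase driven by an FXR-responsive promoter (Gal4 system), run per manufacturer's kit. Compounds applied to plated cells, then incubated a further 22 hours at 37° C. Luciferase luminescence read after detection reagent as a surrogate of FXR activation, giving potency and efficacy.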

[1] = efficacy normalized to CDCA set as 100%

## CCOc1cc(C(=O)O)ccc1NC(=O)N1C2CCC1CC(OCc1c(-c3ccccc3C3CC3)noc1C1CC1)C2 (stereo not drawn) [Example 811]
[1]
  Emax: 66%
Potency range, read-out: EC50
  EC50: 10 to 100 nM

## O=C(O)c1ccc2c(c1)N(C(=O)N1C3CCC1CC(OCc1c(-c4ccccc4OC(F)(F)F)noc1C1CC1)C3)CCC2 (stereo not drawn) [Example 596]
  Emax: 48%
Potency range, read-out: EC50
  EC50: > 1000 nM

## Cn1cc(-c2cccc(NC(=O)N3C4CCC3CC(OCc3c(-c5c(Cl)cccc5Cl)noc3C3CC3)C4)c2)cn1 (stereo not drawn) [Example 13]
Potency range, read-out: EC50
  EC50: < 10 nM

## O=C(NCCS(=O)(=O)O)c1ccc(NC(=O)N2C3CCC2CC(OCc2c(-c4c(Cl)cccc4Cl)noc2C2CC2)C3)c(F)c1 (stereo not drawn) [Example 780]
[1]
  Emax: 0%
Potency range, read-out: EC50
  EC50: 100 to 1000 nM

## O=C(O)c1cccc(NC(=O)N2C3CCC2CC(OCc2c(-c4c(Cl)cccc4Cl)noc2C2CC2)C3)c1 (stereo not drawn) [Example 183]
Potency range, read-out: EC50
  EC50: 100 to 1000 nM

## O=C(NS(=O)(=O)c1ccccc1)c1cccc(NC(=O)N2C3CCC2CC(OCc2c(-c4ccccc4OC(F)(F)F)noc2C2CC2)C3)c1 (stereo not drawn) [Example 759]
[1]
  Emax: 205%
Potency range, read-out: EC50
  EC50: > 1000 nM

## COc1cc(C(=O)O)ccc1NC(=O)N1C2CCC1CC(OCc1c(-c3ccccc3OC(F)(F)F)noc1C1CC1)C2 (stereo not drawn) [Example 238]
Potency range, read-out: EC50
  EC50: < 10 nM

## CS(=O)(=O)NC(=O)c1ccc(NC(=O)N2C3CCC2CC(OCc2c(-c4ccccc4OC(F)(F)F)noc2C2CC2)C3)cc1 (stereo not drawn) [Example 752]
[1]
  Emax: 239%
Potency range, read-out: EC50
  EC50: > 1000 nM

## CN(C)S(=O)(=O)NC(=O)c1ccc(NC(=O)N2C3CCC2CC(OCc2c(-c4ccccc4OC(F)(F)F)noc2C2CC2)C3)cc1 (stereo not drawn) [Example 753]
[1]
  Emax: 217%
Potency range, read-out: EC50
  EC50: 10 to 100 nM

## O=C(O)c1ccc(NC(=O)N2C3CCC2CC(OCc2c(-c4c(Cl)cccc4Cl)noc2C2CC2)C3)c(C(F)(F)F)c1 (stereo not drawn) [Example 710]
[1]
  Emax: 170%
Potency range, read-out: EC50
  EC50: 10 to 100 nM

## CC(C)(C)c1ccc(S(=O)(=O)NC(=O)c2ccc(NC(=O)N3C4CCC3CC(OCc3c(-c5ccccc5OC(F)(F)F)noc3C3CC3)C4)cc2)cc1 (stereo not drawn) [Example 757]
[1]
  Emax: 257%
Potency range, read-out: EC50
  EC50: 100 to 1000 nM

## O=C(Nc1cccc(-c2ccccn2)c1)N1C2CCC1CC(OCc1c(-c3c(Cl)cccc3Cl)noc1C1CC1)C2 (stereo not drawn) [Example 736]
[1]
  Emax: 136%
Potency range, read-out: EC50
  EC50: < 10 nM

## O=C(O)c1ccc(NC(=O)N2C3CCC2CC(OCc2c(-c4c(Cl)cccc4Cl)noc2C2CC2)C3)cc1F (stereo not drawn) [Example 197]
Potency range, read-out: EC50
  EC50: 10 to 100 nM

## O=C(O)c1ccc(NC(=O)N2C3CCC2CC(OCc2c(-c4ccccc4C4CC4)noc2C2CC2)C3)cc1-c1ccccc1 (stereo not drawn) [Example 814]
[1]
  Emax: 112%
Potency range, read-out: EC50
  EC50: 10 to 100 nM

## O=C(O)c1cccc(NC(=O)N2C3CCC2CC(NCc2c(-c4c(Cl)cccc4Cl)noc2C2CC2)C3)c1 (stereo not drawn) [Example 828]
[1]
  Emax: 59%
Potency range, read-out: EC50
  EC50: 10 to 100 nM

## O=C(O)c1ccc(NC(=O)N2C3CCC2CC(OCc2c(-c4c(Cl)cccc4Cl)noc2C2CC2)C3)c(F)c1-c1ccccc1 (stereo not drawn) [Example 798]
[1]
  Emax: 124%
Potency range, read-out: EC50
  EC50: 10 to 100 nM

## Cn1cc(-c2cc(NC(=O)N3C4CCC3CC(OCc3c(-c5c(Cl)cccc5Cl)noc3C3CC3)C4)ccc2C(=O)O)cn1 (stereo not drawn) [Example 776]
[1]
  Emax: 11%
Potency range, read-out: EC50
  EC50: 100 to 1000 nM

## O=C(O)c1ccc(NC(=O)N2C3CCC2CC(OCc2c(-c4c(Cl)cccc4Cl)noc2C2CC2)C3)cc1-c1cncnc1 (stereo not drawn) [Example 782]
[1]
  Emax: 20%
Potency range, read-out: EC50
  EC50: 10 to 100 nM

## COC(=O)c1ccc(NC(=O)N2C3CCC2CC(OCc2c(-c4c(Cl)cccc4Cl)noc2C2CC2)C3)c(C2CC2)c1 (stereo not drawn) [Example 800]
[1]
  Emax: 54%
Potency range, read-out: EC50
  EC50: 10 to 100 nM

## O=C(Nc1ccccn1)N1C2CCC1CC(OCc1c(-c3c(Cl)cccc3Cl)noc1C1CC1)C2 (stereo not drawn) [Example 16]
Potency range, read-out: EC50
  EC50: 100 to 1000 nM

## O=C(O)c1cccc(NC(=O)N2C3CCC2CC(OCc2c(-c4ccccc4OC(F)(F)F)noc2C2CC2)C3)n1 (stereo not drawn) [Example 771]
[1]
  Emax: 54%
Potency range, read-out: EC50
  EC50: > 1000 nM

## O=C(O)c1ccc2nc(NC(=O)N3C4CCC3CC(OCc3c(-c5c(Cl)cccc5Cl)noc3C3CC3)C4)ccc2c1 (stereo not drawn) [Example 789]
[1]
  Emax: 57%
Potency range, read-out: EC50
  EC50: 10 to 100 nM

## COC(=O)c1ccc(F)c(NC(=O)N2C3CCC2CC(OCc2c(-c4c(Cl)cccc4Cl)noc2C2CC2)C3)c1 (stereo not drawn) [Example 722]
[1]
  Emax: 115%
Potency range, read-out: EC50
  EC50: < 10 nM

## CCOc1cc(C(=O)O)ccc1NC(=O)N1C2CCC1CC(OCc1c(C3CCC4(CC3)CC4)noc1C1CC1)C2 (stereo not drawn) [Example 813]
[1]
  Emax: 16%
Potency range, read-out: EC50
  EC50: 10 to 100 nM

## COC(=O)c1ccc2c(c1)CN(C(=O)N1C3CCC1CC(OCc1c(-c4ccccc4OC(F)(F)F)noc1C1CC1)C3)C2 (stereo not drawn) [Example 597]
  Emax: 53%
EC50, potency range
  EC50: 100 to 1000 nM

## O=C(Nc1cccc(-c2ccc(C(F)(F)F)nc2)c1)N1C2CCC1CC(OCc1c(-c3c(Cl)cccc3Cl)noc1C1CC1)C2 (stereo not drawn) [Example 706]
[1]
  Emax: 207%
Potency range, read-out: EC50
  EC50: 10 to 100 nM

## O=C(NCc1cccc(-c2ccccc2)c1)N1C2CCC1CC(OCc1c(-c3c(Cl)cccc3Cl)noc1C1CC1)C2 (stereo not drawn) [Example 735]
[1]
  Emax: 136%
Potency range, read-out: EC50
  EC50: 100 to 1000 nM

## CCOC(=O)c1ccc(NC(=O)N2C3CCC2CC(OCc2c(-c4c(Cl)cccc4Cl)noc2C2CC2)C3)cc1 (stereo not drawn) [Example 182]
Potency range, read-out: EC50
  EC50: 10 to 100 nM

## CN(C)S(=O)(=O)NC(=O)c1cccc(NC(=O)N2C3CCC2CC(OCc2c(-c4c(Cl)cccc4Cl)noc2C2CC2)C3)c1 (stereo not drawn) [Example 219]
Potency range, read-out: EC50
  EC50: 100 to 1000 nM

## COC(=O)c1c(F)cc(NC(=O)N2C3CCC2CC(OCc2c(-c4c(Cl)cccc4Cl)noc2C2CC2)C3)cc1F (stereo not drawn) [Example 198]
Potency range, read-out: EC50
  EC50: < 10 nM

## CC(C)(C)c1ccc(S(=O)(=O)NC(=O)c2cccc(NC(=O)N3C4CCC3CC(OCc3c(-c5c(Cl)cccc5Cl)noc3C3CC3)C4)c2)cc1 (stereo not drawn) [Example 217]
Potency range, read-out: EC50
  EC50: > 1000 nM

## O=C(O)c1ccc(NC(=O)N2C3CCC2CC(NCc2c(-c4c(Cl)cccc4Cl)noc2C2CC2)C3)cc1 (stereo not drawn) [Example 826]
[1]
  Emax: 63%
Potency range, read-out: EC50
  EC50: 10 to 100 nM

## O=C(Nc1cccc(F)c1)N1C2CCC1CC(OCc1c(-c3c(Cl)cccc3Cl)noc1C1CC1)C2 (stereo not drawn) [Example 1]
Potency range, read-out: EC50
  EC50: < 10 nM

## CC(=O)N1CC=C(c2cccc(NC(=O)N3C4CCC3CC(OCc3c(-c5c(Cl)cccc5Cl)noc3C3CC3)C4)c2)CC1 (stereo not drawn) [Example 713]
[1]
  Emax: 162%
Potency range, read-out: EC50
  EC50: < 10 nM

## O=C(O)c1ccc(NC(=O)N2C3CCC2CC(OCc2c(-c4ccccc4OC(F)(F)F)noc2C2CC2)C3)cc1-c1ccccc1 (stereo not drawn) [Example 247]
Potency range, read-out: EC50
  EC50: < 10 nM

## COC(=O)c1ccc(NC(=O)N2C3CCC2CC(OCc2c(-c4c(Cl)cccc4Cl)noc2C2CC2)C3)cc1-c1ccccc1 (stereo not drawn) [Example 200]
Potency range, read-out: EC50
  EC50: < 10 nM

## O=C(O)c1ccc(NC(=O)N2C3CCC2CC(OCc2c(-c4ccccc4OC(F)(F)F)noc2C2CC2)C3)cc1OC(F)(F)F (stereo not drawn) [Example 822]
[1]
  Emax: 76%
Potency range, read-out: EC50
  EC50: < 10 nM

## CCOC(=O)c1ccc(NC(=O)N2C3CCC2CC(NCc2c(-c4ccccc4OC(F)(F)F)noc2C2CC2)C3)c(OCC)c1 (stereo not drawn) [Example 831]
[1]
  Emax: 15%
Potency range, read-out: EC50
  EC50: 10 to 100 nM

## O=C(Nc1cncc(C(F)(F)F)c1)N1C2CCC1CC(OCc1c(-c3c(Cl)cccc3Cl)noc1C1CC1)C2 (stereo not drawn) [Example 18]
Potency range, read-out: EC50
  EC50: < 10 nM

## O=C(O)c1cnc2cc(NC(=O)N3C4CCC3CC(OCc3c(-c5c(Cl)cccc5Cl)noc3C3CC3)C4)ccc2c1 (stereo not drawn) [Example 779]
[1]
  Emax: 50%
Potency range, read-out: EC50
  EC50: 10 to 100 nM

## O=C(O)c1ccc(NC(=O)N2C3CCC2CC(OCc2c(C4CCC5(CC4)CC5)noc2C2CC2)C3)cc1-c1ccccc1 (stereo not drawn) [Example 293]
Potency range, read-out: EC50
  EC50: 10 to 100 nM

## O=C(O)c1cc(F)c(NC(=O)N2C3CCC2CC(OCc2c(-c4c(Cl)cccc4Cl)noc2C2CC2)C3)cc1-c1ccccc1 (stereo not drawn) [Example 797]
[1]
  Emax: 129%
Potency range, read-out: EC50
  EC50: < 10 nM

## O=C(Nc1cccc(C(F)(F)F)c1)N1C2CCC1CC(NCc1c(-c3ccccc3OC(F)(F)F)noc1C1CC1)C2 (stereo not drawn) [Example 121]
Potency range, read-out: EC50
  EC50: 10 to 100 nM

## O=C(O)c1cc(NC(=O)N2C3CCC2CC(OCc2c(-c4c(Cl)cccc4Cl)noc2C2CC2)C3)cc(-c2cccnc2)c1 (stereo not drawn) [Example 727]
Potency range, read-out: EC50
  EC50: 10 to 100 nM and < 10 nM

## O=C(NCc1cncc(-c2ccccc2)c1)N1C2CCC1CC(OCc1c(-c3c(Cl)cccc3Cl)noc1C1CC1)C2 (stereo not drawn) [Example 739]
[1]
  Emax: 108%
Potency range, read-out: EC50
  EC50: 10 to 100 nM

## Cn1nnc(-c2cccc(NC(=O)N3C4CCC3CC(OCc3c(-c5c(Cl)cccc5Cl)noc3C3CC3)C4)c2)n1 (stereo not drawn) [Example 187]
Potency range, read-out: EC50
  EC50: 10 to 100 nM
